ChEMBL document CHEMBL5543099 (Eur J Med Chem, 2024)
In brackets after ≈: the same amount, converted by molar mass. Activity calls are given as the source filed them. The rule behind the calls is not given here.

Tests used:
[1] = test system: Stenotrophomonas maltophilia; assay: Antimicrobial activity against Stenotrophomonas maltophilia ATCC 17808 assessed as inhibition of bacterial growth incubated for 16 to 18 hrs by CLSI protocol based Muller Hinton broth assay; assay type: functional; settings: time 16-18 hrs
[2] = test system: Escherichia coli; assay: Antimicrobial activity against Escherichia coli ATCC 25922 assessed as inhibition of bacterial growth incubated for 16 to 18 hrs by CLSI protocol based Muller Hinton broth assay; assay type: functional; settings: time 16-18 hrs
[3] = test system: Enterococcus faecalis; assay: Antimicrobial activity against Enterococcus faecalis ATCC 29212 assessed as inhibition of bacterial growth incubated for 16 to 18 hrs by CLSI protocol based Muller Hinton broth assay; assay type: functional; settings: time 16-18 hrs
[4] = Hemolytic activity in defibrinated sheep RBC incubated for 1 hrs; assay type: toxicity, cell-based, Ovis aries, Erythrocyte; settings: defibrinated sheep red blood cells
[5] = test system: Staphylococcus aureus; assay: Antimicrobial activity against Staphylococcus aureus ATCC 29213 assessed as inhibition of bacterial growth incubated for 16 to 18 hrs by CLSI protocol based Muller Hinton broth assay; assay type: functional; settings: time 16-18 hrs
[6] = Cytotoxicity against rat HBZY-1 cells assessed as cell survival rate at 64 microg/ml incubated for 48 hrs by CCK8 assay relative to control; assay type: toxicity, cell-based; settings: at 64 µg/mL, read-out: Activity
[7] = Cytotoxicity against human SW620 cells assessed as cell survival rate at 64 microg/ml incubated for 48 hrs by CCK8 assay relative to control; assay type: toxicity, cell-based, SW-620; settings: at 64 µg/mL, read-out: Activity
[8] = test system: Cell membrane; assay: Induction of Cytoplasmic membrane depolarization in Staphylococcus aureus at 16 microg/ml incubated for 15 mins by DiSC3(5) dye based fluorescence microplate reader; assay type: cell membranes; settings: dose 16.0 µg/ml
[9] = test system: Staphylococcus aureus; assay: Antibacterial activity against Staphylococcus aureus assessed as inhibition of bacterial growth incubated for 6 hrs in presence of 50% fetal bovine plasma by CLSI protocol based Muller Hinton broth assay; assay type: functional
[10] = test system: Staphylococcus aureus; assay: Antibacterial activity against Staphylococcus aureus assessed as inhibition of bacterial growth by measuring fold change in MIC incubated for 6 hrs in presence of 50% fetal bovine plasma by CLSI protocol based Muller Hinton broth assay; assay type: functional
[11] = test system: Staphylococcus aureus; assay: Antibacterial activity against Staphylococcus aureus assessed as inhibition of bacterial growth incubated for 6 hrs in presence of defibrinated sheep 50% plasma by CLSI protocol based Muller Hinton broth assay; assay type: functional
[12] = test system: Staphylococcus aureus; assay: Antibacterial activity against Staphylococcus aureus assessed as inhibition of bacterial growth by measuring fold change in MIC incubated for 6 hrs in presence of defibrinated sheep 50% plasma by CLSI protocol based Muller Hinton broth assay; assay type: functional
[13] = test system: Staphylococcus aureus; assay: Antibacterial activity against Staphylococcus aureus assessed as inhibition of bacterial growth incubated for 6 hrs in presence of 50% fetal bovine serum by CLSI protocol based Muller Hinton broth assay; assay type: functional
[14] = test system: Staphylococcus aureus; assay: Antibacterial activity against Staphylococcus aureus assessed as inhibition of bacterial growth by measuring fold change in MIC incubated for 6 hrs in presence of 50% fetal bovine serum by CLSI protocol based Muller Hinton broth assay; assay type: functional
[15] = test system: Cell membrane; assay: Induction of inner membrane permeabilization in Staphylococcus aureus assessed as fluorescence intensity at 16 microg/ml incubated for 15 mins by PI staining based microplate reader; assay type: cell membranes; settings: dose 16.0 µg/ml
[16] = test system: Cell membrane; assay: Induction of cell membrane damage in Escherichia coli assessed as nucleic acid leakage at 4 times of MIC incubated for 2 hrs by n ultra-micro-volume spectrophotometric analysis; assay type: cell membranes

## C[C@@H](O)[C@H]1C(=O)N2C(C(=O)O)=C(S[C@@H]3CN[C@H](C(=O)N(C)C)C3)[C@H](C)[C@H]12 [MEROPENEM]
[1]
  MIC: 0.06 µg/mL (≈ 0.156 µM)
[2]
  MIC: 0.03 µg/mL (≈ 0.0782 µM)

## CC(C)(C)c1ccc(C[n+]2ccc(C(=O)N3CCN(c4cc5c(cc4F)c(=O)c(C(=O)O)cn5C4CC4)CC3)cc2)cc1.[Br-]
[1]
  MIC: 4 µg/mL
[3]
  MIC: 4 µg/mL
[2]
  MIC: 4 µg/mL
[4]
  HC50 at 1 h: > 1280 µg/mL
[5]
  MIC: 8 µg/mL

## CCCCCCCCCNC(=O)C[n+]1ccc(C(=O)N2CCN(c3cc4c(cc3F)c(=O)c(C(=O)O)cn4C3CC3)CC2)cc1.[Br-]
[1]
  MIC: 16 µg/mL
[3]
  MIC: 2 µg/mL
[2]
  MIC: 4 µg/mL
[4]
  HC50 at 1 h: > 1280 µg/mL
[5]
  MIC: 4 µg/mL

## O=C(O)c1cn(C2CC2)c2cc(N3CCN(C(=O)c4cc[n+](Cc5ccc(C(F)(F)F)cc5)cc4)CC3)c(F)cc2c1=O.[Br-]
[1]
  MIC: 4 µg/mL
[3]
  MIC: 8 µg/mL
[2]
  MIC: 4 µg/mL
[4]
  HC50 at 1 h: > 1280 µg/mL
[5]
  MIC: 16 µg/mL

## CCCCCCNC(=O)C[n+]1ccc(C(=O)N2CCN(c3cc4c(cc3F)c(=O)c(C(=O)O)cn4C3CC3)CC2)cc1.[Br-]
[1]
  MIC: 16 µg/mL
[3]
  MIC: 8 µg/mL
[2]
  MIC: 8 µg/mL
[4]
  HC50 at 1 h: > 1280 µg/mL
[5]
  MIC: 8 µg/mL

## CCCNC(=O)C[n+]1cccc(C(=O)N2CCN(c3cc4c(cc3F)c(=O)c(C(=O)O)cn4C3CC3)CC2)c1.[Br-]
[1]
  MIC: > 64 µg/mL
[3]
  MIC: 64 µg/mL
[2]
  MIC: 16 µg/mL
[4]
  HC50 at 1 h: > 1280 µg/mL
[5]
  MIC: 64 µg/mL

## CCCCCCCCNC(=O)C[n+]1cccc(C(=O)N2CCN(c3cc4c(cc3F)c(=O)c(C(=O)O)cn4C3CC3)CC2)c1.[Br-]
[1]
  MIC: 16 µg/mL
[3]
  MIC: 8 µg/mL
[2]
  MIC: 8 µg/mL
[4]
  HC50 at 1 h: > 1280 µg/mL
[5]
  MIC: 8 µg/mL

## CCCCCCCCCNC(=O)C[n+]1cccc(C(=O)N2CCN(c3cc4c(cc3F)c(=O)c(C(=O)O)cn4C3CC3)CC2)c1.[Br-]
[1]
  MIC: 32 µg/mL
[3]
  MIC: 8 µg/mL
[2]
  MIC: 8 µg/mL
[4]
  HC50 at 1 h: > 1280 µg/mL
[5]
  MIC: 8 µg/mL

## O=C(O)c1cn(C2CC2)c2cc(N3CCN(C(=O)c4cc[n+](Cc5ccc(Cl)cc5)cc4)CC3)c(F)cc2c1=O.[Br-]
[1]
  MIC: 8 µg/mL
[3]
  MIC: 8 µg/mL
[2]
  MIC: 8 µg/mL
[4]
  HC50 at 1 h: > 1280 µg/mL
[5]
  MIC: 16 µg/mL

## CCCCCCNC(=O)C[n+]1cccc(C(=O)N2CCN(c3cc4c(cc3F)c(=O)c(C(=O)O)cn4C3CC3)CC2)c1.[Br-]
[1]
  MIC: 64 µg/mL
[3]
  MIC: 32 µg/mL
[2]
  MIC: 16 µg/mL
[4]
  HC50 at 1 h: > 1280 µg/mL
[5]
  MIC: 16 µg/mL

## CCCCCNC(=O)C[n+]1cccc(C(=O)N2CCN(c3cc4c(cc3F)c(=O)c(C(=O)O)cn4C3CC3)CC2)c1.[Br-]
[1]
  MIC: > 64 µg/mL
[3]
  MIC: 64 µg/mL
[2]
  MIC: 32 µg/mL
[4]
  HC50 at 1 h: > 1280 µg/mL
[5]
  MIC: 32 µg/mL

## O=C(O)c1cn(C2CC2)c2cc(N3CCN(C(=O)c4cc[n+](Cc5ccc(F)cc5)cc4)CC3)c(F)cc2c1=O.[Br-]
[1]
  MIC: 4 µg/mL
[3]
  MIC: 8 µg/mL
[2]
  MIC: 4 µg/mL
[4]
  HC50 at 1 h: > 1280 µg/mL
[5]
  MIC: 16 µg/mL

## C=C[C@]1(C)C[C@@H](OC(=O)CSCCN(CC)CC)[C@]2(C)[C@H](C)CC[C@]3(CCC(=O)[C@H]32)[C@@H](C)[C@@H]1O [TIAMULIN]
[6]
  viability at 48 h, 64 microg/ml: 85.9%
[7]
  viability at 48 h, 64 microg/ml: 32.9%

## C=C[C@]1(C)C[C@@H](OC(=O)CS[C@@H]2C[C@H]3CC[C@@H](C2)N3C)[C@]2(C)[C@H](C)CC[C@]3(CCC(=O)[C@H]32)[C@@H](C)[C@@H]1O [RETAPAMULIN]
[6]
  viability at 48 h, 64 microg/ml: 1.7%
[7]
  viability at 48 h, 64 microg/ml: 4.7%

## GENTAMICIN
[8]
  Activity: inactive

## CCCCNC(=O)C[n+]1cccc(C(=O)N2CCN(c3cc4c(cc3F)c(=O)c(C(=O)O)cn4C3CC3)CC2)c1.[Br-]
[1]
  MIC: > 64 µg/mL
[3]
  MIC: > 64 µg/mL
[2]
  MIC: 32 µg/mL
[4]
  HC50 at 1 h: > 1280 µg/mL
[5]
  MIC: 64 µg/mL

## CCCCCCCNC(=O)C[n+]1ccc(C(=O)N2CCN(c3cc4c(cc3F)c(=O)c(C(=O)O)cn4C3CC3)CC2)cc1.[Br-]
[1]
  MIC: 32 µg/mL
[3]
  MIC: 2 µg/mL
[2]
  MIC: 4 µg/mL
[4]
  HC50 at 1 h: > 1280 µg/mL
[5]
  MIC: 4 µg/mL

## O=C(O)c1cn(C2CC2)c2cc(N3CCN(C(=O)c4cc[n+](Cc5ccc(-c6ccccc6)cc5)cc4)CC3)c(F)cc2c1=O.[Br-]
[1]
  MIC: 4 µg/mL
[3]
  MIC: 32 µg/mL
[2]
  MIC: 4 µg/mL
[4]
  HC50 at 1 h: > 1280 µg/mL
[5]
  MIC: 4 µg/mL

## COLISTIN
[9]
  MIC: 16 µg/mL
[10]
  fold change (FC): 2
[11]
  MIC: 16 µg/mL
[12]
  fold change (FC): 4
[13]
  MIC: 8 µg/mL
[14]
  fold change (FC): 4

## CCCNC(=O)C[n+]1ccc(C(=O)N2CCN(c3cc4c(cc3F)c(=O)c(C(=O)O)cn4C3CC3)CC2)cc1.[Br-]
[1]
  MIC: > 64 µg/mL
[3]
  MIC: 16 µg/mL
[2]
  MIC: 16 µg/mL
[4]
  HC50 at 1 h: > 1280 µg/mL
[5]
  MIC: 16 µg/mL

## CCCCCNC(=O)C[n+]1ccc(C(=O)N2CCN(c3cc4c(cc3F)c(=O)c(C(=O)O)cn4C3CC3)CC2)cc1.[Br-]
[1]
  MIC: 64 µg/mL
[3]
  MIC: 8 µg/mL
[2]
  MIC: 16 µg/mL
[4]
  HC50 at 1 h: > 1280 µg/mL
[5]
  MIC: 16 µg/mL

## CC[C@H](C)[C@H](NC(=O)CN)C(=O)NCC(=O)N[C@@H](C)C(=O)N[C@H](C(=O)N[C@@H](CC(C)C)C(=O)N[C@@H](CCCCN)C(=O)N[C@H](C(=O)N[C@@H](CC(C)C)C(=O)N[C@H](C(=O)N[C@H](C(=O)NCC(=O)N[C@@H](CC(C)C)C(=O)N1CCC[C@H]1C(=O)N[C@@H](C)C(=O)N[C@@H](CC(C)C)C(=O)N[C@H](C(=O)N[C@@H](CO)C(=O)N[C@@H](Cc1c[nH]c2ccccc12)C(=O)N[C@H](C(=O)N[C@@H](CCCCN)C(=O)N[C@@H](CCCNC(=N)N)C(=O)N[C@@H](CCCCN)C(=O)N[C@@H](CCCNC(=N)N)C(=O)N[C@@H](CCC(N)=O)C(=O)N[C@@H](CCC(N)=O)C(N)=O)[C@@H](C)CC)[C@@H](C)CC)[C@@H](C)O)[C@@H](C)O)C(C)C)C(C)C [MELITTIN]
[1]
  MIC: 8 µg/mL (≈ 2.81 µM)
[15]
  Flu intensity: 600
[8]
  Activity: Active
[6]
  viability at 48 h, 64 microg/ml: 1.4%
[3]
  MIC: 2 µg/mL (≈ 0.703 µM)
[7]
  viability at 48 h, 64 microg/ml: 5.7%
[10]
  fold change (FC): 32
[12]
  fold change (FC): 32
[16]
  Activity: Active
[14]
  fold change (FC): 32

## CCCCNC(=O)C[n+]1ccc(C(=O)N2CCN(c3cc4c(cc3F)c(=O)c(C(=O)O)cn4C3CC3)CC2)cc1.[Br-]
[1]
  MIC: 64 µg/mL
[3]
  MIC: 16 µg/mL
[2]
  MIC: 16 µg/mL
[4]
  HC50 at 1 h: > 1280 µg/mL
[5]
  MIC: 16 µg/mL

## O=C(O)c1cn(C2CC2)c2cc(N3CCN(C(=O)c4cc[n+](Cc5ccccc5)cc4)CC3)c(F)cc2c1=O.[Br-]
[1]
  MIC: 4 µg/mL
[3]
  MIC: 8 µg/mL
[2]
  MIC: 8 µg/mL
[4]
  HC50 at 1 h: > 1280 µg/mL
[5]
  MIC: 16 µg/mL

## CCCCCCCNC(=O)C[n+]1cccc(C(=O)N2CCN(c3cc4c(cc3F)c(=O)c(C(=O)O)cn4C3CC3)CC2)c1.[Br-]
[1]
  MIC: 64 µg/mL
[3]
  MIC: 8 µg/mL
[2]
  MIC: 8 µg/mL
[4]
  HC50 at 1 h: > 1280 µg/mL
[5]
  MIC: 8 µg/mL

## O=C(O)c1cn(C2CC2)c2cc(N3CCN(C(=O)C[n+]4ccc(-c5ccccc5)cc4)CC3)c(F)cc2c1=O.[Br-]
[1]
  MIC: 16 µg/mL
[3]
  MIC: 8 µg/mL
[2]
  MIC: 16 µg/mL
[4]
  HC50 at 1 h: > 1280 µg/mL
[5]
  MIC: 16 µg/mL
